Measured values taken from BindingDB's records for doi:10.1021/jm00128a025 (Roche Research Center, 1989).

Key:
[1] = Inhibition of platelet-activating factor receptor binding activity in dog platelets using [3H]-PAF as radioligand.
[2] = as above; remark: listed apart in the source

| Compound | IC50 [1] [nM] | IC50 [2] [nM] |
| --- | --- | --- |
| COc1ccc(-c2ccc(C(=O)NCCCCc3cccnc3)cc2OC)cc1OC | 300 | – |
| O=C(NCCCCc1cccnc1)c1ccc(-c2cccc(F)c2)c(F)c1 | 2100 | – |
| O=C(NCCCCc1cccnc1)c1ccc(-c2cccc(O)c2)cc1 | 300 | – |
| COc1ccc(-c2ccc(C(=O)NCCCCc3cccnc3)cc2[N+](=O)[O-])cc1OC | 200 | – |
| COc1ccc(-c2ccc(C(=O)NCCCCc3cccnc3)cc2Br)cc1OC | 220 | – |
| COc1cccc(-c2ccc(C(=O)NCCCCc3cccnc3)cc2)c1 | 280 | – |
| Cc1cccc(-c2ccc(C(=O)NCCCCc3cccnc3)cc2)c1 | 500 | – |
| Cc1ccc(-c2ccc(C(=O)NCCCCc3cccnc3)cc2)cc1C | 200 | – |
| COc1ccc(-c2ccc(C(=O)NCCCCc3cccnc3)cc2)cc1OC | 400 | – |
| O=C(NCCCCc1cccnc1)c1ccc(-c2cccc(OC3=CC=CC=CC3)c2)cc1 | – | 700 |
| COc1ccc(-c2ccc(C(=O)N[C@H](C)CCCc3cccnc3)cc2[N+](=O)[O-])cc1OC | 200 | – |

Continued, values first:

| IC50 [1] [nM] | IC50 [2] [nM] | Compound |
| --- | --- | --- |
| 50 | – | CCCc1cc(C(=O)N[C@H](C)CCCc2cccnc2)ccc1-c1ccc(OC)c(OC)c1 |
| 60 | – | COc1ccc(-c2ccc(C(=S)N[C@H](C)CCCc3cccnc3)cc2)cc1OC |
| 4 | – | CCc1cc(C(=O)N[C@H](C)CCCc2cccnc2)ccc1-c1ccc(OC)c(OC)c1 |
| 20 | – | COc1cccc(-c2ccc(C(=O)N[C@H](C)CCCc3cccnc3)cc2)c1 |
| 50 | – | C[C@H](CCCc1cccnc1)NC(=O)c1ccc(-c2ccccc2)c(-c2ccccc2)c1 |
| 125 | – | COc1ccc(-c2ccc(C(=O)NCCCCc3cccnc3)cc2-c2ccc(OC)cc2)cc1 |
| 80 | – | C=CCc1cc(C(=O)N[C@H](C)CCCc2cccnc2)ccc1-c1ccc(OC)c(OC)c1 |
| 180 | – | COc1ccc(-c2ccc(C(=O)N[C@H](C)CCCc3cccnc3)cc2Br)cc1OC |
